Measured values reported in patent US9643974B2, “Amino-substituted imidazopyridazines” (Bayer Intellectual Property GmbH, priority 2011, dated 2017).

Legend:
human full-lengt MKNK1 = target: T1, human full-lengt MKNK1 (Homo sapiens, UniProt Q9BUB5, T385D); test: MKNK1 kinase assay (MKNK1 TR-FRET assay); type: biochemical; settings: ATP final conc. 10 μM, 15 min preincubation, 45 min reaction at 22° C.
T1 construct: purchased Carna Biosciences 02-145; host or cells: insect cells (baculovirus expression system)
Source text: MKNK1-inhibitory activity of compounds of the present invention was quantified employing the MKNK1 TR-FRET assay as described in the following paragraphs.
(§1) A recombinant fusion protein of Glutathione-S-Transferase (GST, N-terminally) and human full-lengt MKNK1 (amino acids 1-424 and T344D of accession number BAA 19885.1), expressed in insect cells using baculovirus expression system and purified via glutathione sepharose affinity chromatography, was purchased from Carna Biosciences (product no 02-145) and used as enzyme. As substrate for the kinase reaction the biotinylated peptide biotin-Ahx-IKKRKLTRRKSLKG (C-terminus in amide form) was used which can be purchased e.g. form the company Biosyntan (Berlin-Buch, Germany).
(§2) For the assay 50 nL of a 100 fold concentrated solution of the test compound in DMSO was pipetted into a black low volume 384 well microtiter plate (Greiner Bio-One, Frickenhausen, Germany), 2 μL of a solution of MKNK1 in aqueous assay buffer [50 mM HEPES pH 7.5, 5 mM magnesium chloride, 1.0 mM dithiothreitol, 0.005% (v/v) Nonidet-P40 (Sigma)] was added and the mixture was incubated for 15 min at 22° C. to allow pre-binding of the test compounds to the enzyme before the start of the kinase reaction. Then the kinase reaction was started by the addition of 3 μL of a solution of adenosine-tri-phosphate (ATP, 16.7 μM=>final conc. in the 5 μL assay volume is 10 μM) and substrate (0.1 μM=>final conc. in the 5 μL assay volume is 0.06 μM) in assay buffer and the resulting mixture was incubated for a reaction time of 45 min at 22° C. The concentration of MKNK1 was adjusted depending of the activity of the enzyme lot and was chosen appropriate to have the assay in the linear range, typical concentrations were in the range of 0.05 μg/ml. The reaction was stopped by the addition of 5 μL of a solution of TR-FRET detection reagents (5 nM streptavidine-XL665 [Cisbio Bioassays, Codolet, France] and 1 nM anti-ribosomal protein S6 (pSer236)-antibody from Invitrogen [#44921G] and 1 nM LANCE EU-W1024 labeled ProteinG [Perkin-Elmer, product no. AD0071]) in an aqueous EDTA-solution (100 mM EDTA, 0.1% (w/v) bovine serum albumin in 50 mM HEPES pH 7.5).
The resulting mixture was incubated for 1 h at 22° C. to allow the formation of complex between the phosphorylated biotinylated peptide and the detection reagents. Subsequently the amount of phosphorylated substrate was evaluated by measurement of the resonance energy transfer from the Eu-chelate to the streptavidine-XL. Therefore, the fluorescence emissions at 620 nm and 665 nm after excitation at 350 nm were measured in a TR-FRET reader, e.g. a Rubystar (BMG Labtechnologies, Offenburg, Germany) or a Viewlux (Perkin-Elmer). The ratio of the emissions at 665 nm and at […] was taken as the measure for the amount of phosphorylated substrate. The data were normalised (enzyme reaction without inhibitor=0% inhibition, all other assay components but no enzyme=100% inhibition). Usually the test compounds were tested on the same microtiterplate in 11 different concentrations in the range of 20 μM to 0.1 nM (20 μM, 5.9 μM, 1.7 μM, 0.51 μM, 0.15 μM, 44 nM, 13 nM, 3.8 nM, 1.1 nM, 0.33 nM and 0.1 nM, the dilution series prepared separately before the assay on the level of the 100 fold concentrated solutions in DMSO by serial 1:3.4 dilutions) in duplicate values for each concentration and […] were calculated by a 4 parameter fit.

human full-length MKNK1 = target: T2, human full-length MKNK1 (Homo sapiens, UniProt Q9BUB5, T385D); test: MKNK1 kinase high ATP assay (TR-FRET-based); type: biochemical; settings: ATP final conc. 2 mM, 15 min preincubation, 30 min reaction at 22° C.
T2 construct: purchased Carna Biosciences 02-145; host or cells: insect cells (baculovirus expression system)
Description: MKNK1 Kinase High ATP Assay
MKNK1-inhibitory activity at high ATP of compounds of the present invention after their preincubation with MKNK1 was quantified employing the TR-FRET-based MKNK1 high ATP assay as described in the following paragraphs.
as §1, with “human full-length” for “human full-lengt”, “was used,” for “was used”, “e.g. from” for “e.g. form”
as §2, with “3.3 mM=>final” for “16.7 μM=>final”, “2 mM)” for “10 μM)”, “30” for “45”, “0.003 μg/mL.” for “0.05 μg/ml.”
The resulting mixture was incubated for 1 h at 22° C. to allow the formation of complex between the phosphorylated biotinylated peptide and the detection reagents. Subsequently the amount of phosphorylated substrate was evaluated by measurement of the resonance energy transfer from the Eu-chelate to the streptavidine-XL. Therefore, the fluorescence emissions at 620 nm and 665 nm after excitation at 350 nm were measured in a TR-FRET reader, e.g. a Rubystar (BMG Labtechnologies, Offenburg, Germany) or a Viewlux (Perkin-Elmer). The ratio of the emissions at 665 nm and at […] was taken as the measure for the amount of phosphorylated substrate. The data were normalised (enzyme reaction without inhibitor=0% inhibition, all other assay components but no enzyme=100% inhibition).

T1 sequence (Q9BUB5 1-424 isoform Q9BUB5-2 T344D): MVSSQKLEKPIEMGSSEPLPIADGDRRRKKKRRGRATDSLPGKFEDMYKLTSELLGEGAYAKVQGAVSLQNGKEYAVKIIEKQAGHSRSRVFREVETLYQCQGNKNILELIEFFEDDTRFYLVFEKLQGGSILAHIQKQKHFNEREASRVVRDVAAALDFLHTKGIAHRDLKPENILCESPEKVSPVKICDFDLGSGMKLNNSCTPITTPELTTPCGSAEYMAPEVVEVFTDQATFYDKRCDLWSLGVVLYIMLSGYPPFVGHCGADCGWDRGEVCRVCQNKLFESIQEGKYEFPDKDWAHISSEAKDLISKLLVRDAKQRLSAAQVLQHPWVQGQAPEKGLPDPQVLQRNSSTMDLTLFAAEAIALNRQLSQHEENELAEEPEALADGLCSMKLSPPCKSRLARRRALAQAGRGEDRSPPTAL
T2 sequence (Q9BUB5 1-424 isoform Q9BUB5-2 T344D): as above

IC50 (human full-lengt MKNK1)	IC50 (human full-length MKNK1)	Compound
7 nM	17 nM	CC(C)Oc1nccc2oc(-c3cnc4ccc(O[C@H]5C[C@H](N)C5)nn34)cc12 [Example 37, trans-3-({3-[4-(Propan-2-yloxy)furo[3,2-c]pyridin-2-yl]imidazo[1,2-b]pyridazin-6-yl}oxy)cyclobutanamine]
8 nM	23 nM	CCOc1nccc2oc(-c3cnc4ccc(OC[C@@H](C)N)nn34)cc12 [Example 38, (2R)-1-{[3-(4-Ethoxyfuro[3,2-c]pyridin-2-yl)imidazo[1,2-b]pyridazin-6-yl]oxy}-propan-2-amine]
250 nM	593 nM	CCN(C(=O)OC(C)(C)C)c1nccc2oc(-c3cnc4ccc(OC[C@H](C)N)nn34)cc12 [Example 39, tert-Butyl[2-(6-{[(2S)-2-aminopropyl]oxy}imidazo[1,2-b]pyridazin-3-yl)-furo[3,2-c]pyridin-4-yl]ethylcarbamate]
5 nM	13 nM	CCNc1nccc2oc(-c3cnc4ccc(OC[C@H](C)N)nn34)cc12 [Example 40, 2-(6-{[(2S)-2-Aminopropyl]oxy}imidazo[1,2-b]pyridazin-3-yl)-N-ethylfuro[3,2-c]pyridin-4-amine]
